This is an account of results in US7169786B2, “Isoxazoline derivatives as anti-depressants” (priority 2001, dated 2007).

Experiment [1] concerns the target T1, hα2A receptor (Homo sapiens, UniProt P08913).
T1 construct: expressed in transfected cells
T1 sequence (P08913 1-465): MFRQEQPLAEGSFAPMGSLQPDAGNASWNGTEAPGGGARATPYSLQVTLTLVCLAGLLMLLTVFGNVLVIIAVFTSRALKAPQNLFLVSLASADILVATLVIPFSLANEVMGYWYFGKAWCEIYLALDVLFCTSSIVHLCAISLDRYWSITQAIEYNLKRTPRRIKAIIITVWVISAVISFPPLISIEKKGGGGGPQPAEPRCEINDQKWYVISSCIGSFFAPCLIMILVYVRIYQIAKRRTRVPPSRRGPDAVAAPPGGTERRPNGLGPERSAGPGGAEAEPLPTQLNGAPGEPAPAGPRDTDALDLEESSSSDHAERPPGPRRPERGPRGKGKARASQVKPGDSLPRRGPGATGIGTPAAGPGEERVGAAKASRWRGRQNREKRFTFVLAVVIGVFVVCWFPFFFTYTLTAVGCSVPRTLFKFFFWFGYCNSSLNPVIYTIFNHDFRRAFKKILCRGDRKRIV
Kind of experiment: Radioligand binding experiment for hα2A receptor ([3H]-raulwolscine). The conditions noted are these: membranes of CHO cells expressing human α2A receptor, [3H]raulwolscine 1 nM; for IC50: read-out: hα2A pIC50 (converted). How it is done: (§1) The interaction of the compounds of Formula (I) with hα2-receptors and h5-HT-transporters was assessed in in vitro radioligand binding experiments. In general, a low concentration of a radioligand with a high binding affinity for a particular receptor or transporter is incubated with a sample of a tissue preparation enriched in a particular receptor or transporter or with a preparation of cells expressing cloned human receptors in a buffered medium. During the incubation, the radioligand binds to the receptor or transporter. When equilibrium of binding is reached, the receptor bound radioactivity is separated from the non-bound radioactivity, and the receptor- or transporter-bound activity is counted. The interaction of the test compounds with the receptor is assessed in competition binding experiments. Various concentrations of the test compound are added to the incubation mixture containing the receptor- or transporter preparation and the radioligand. The test compound in proportion to its binding affinity and its concentration inhibits binding of the radioligand. The radioligand used for hα2A, hα2B and hα2C receptor binding was [^3H]-raulwolscine and for the h5-HT transporter was [^3H]paroxetine.
(§2) CHO cells, stabile transfected with human adrenergic-α2A-, -α2B or α2C receptor cDNA, were cultured in Dulbecco's Modified Eagle's Medium (DMEM)/Nutrient mixture Ham's F12 (ratio 1:1)(Gibco, Gent-Belgium) supplemented with 10% heat inactivated fetal calf serum (Life Technologies, Merelbeke-Belgium) and antibiotics (100 IU/ml penicillin G, 100 μg/ml streptomycin sulphate, 110 μg/ml pyruvic acid and 100 μg/ml L-glutamine). One day before collection, cells were induced with 5 mM sodiumbutyrate. Upon 80–90% of confluence, cells were scraped in phosphate buffered saline without Ca^2+ and Mg^2+ and collected by centrifugation at 1500×g for 10 min. The cells were homogenised in Tris-HCl 50 mM using an Ultraturrax homogenizer and centrifuged for 10 min at 23,500×g. The pellet was washed once by resuspension and rehomogenization and the final pellet was resuspended in Tris-HCl, divided in 1 ml aliquots and stored at −70° C.
(§3) Membranes were thawed and re-homogenized in incubation buffer (glycylglycine 25 mM, pH 8.0). […] Filters were rinsed extensively with ice-cold rinsing buffer (Tris-HCl 50 mM pH 7.4). Filter-bound radioactivity was determined by scintillation counting in a Topcount (Packard, Meriden, Conn.) and results were expressed as counts per minute (cpm). Non-specific binding was determined in the presence of 1 μM oxymetazoline for hα2A- and hα2B receptors and 1 μM spiroxatrine for hα2C receptors.
(§4) Data from assays in the presence of compound were calculated as a percentage of total binding measured in the absence of test compound. Inhibition curves, plotting percent of total binding versus the log value of the concentration of the test compound, were automatically generated, and sigmoidal inhibition curves were fitted using non-linear regression. The pIC50 values of test compounds were derived from individual curves.

For experiment [2], the target named is T2, hα2C receptor (Homo sapiens, UniProt P18825).
T2 construct: expressed in transfected cells
T2 sequence (P18825 1-462): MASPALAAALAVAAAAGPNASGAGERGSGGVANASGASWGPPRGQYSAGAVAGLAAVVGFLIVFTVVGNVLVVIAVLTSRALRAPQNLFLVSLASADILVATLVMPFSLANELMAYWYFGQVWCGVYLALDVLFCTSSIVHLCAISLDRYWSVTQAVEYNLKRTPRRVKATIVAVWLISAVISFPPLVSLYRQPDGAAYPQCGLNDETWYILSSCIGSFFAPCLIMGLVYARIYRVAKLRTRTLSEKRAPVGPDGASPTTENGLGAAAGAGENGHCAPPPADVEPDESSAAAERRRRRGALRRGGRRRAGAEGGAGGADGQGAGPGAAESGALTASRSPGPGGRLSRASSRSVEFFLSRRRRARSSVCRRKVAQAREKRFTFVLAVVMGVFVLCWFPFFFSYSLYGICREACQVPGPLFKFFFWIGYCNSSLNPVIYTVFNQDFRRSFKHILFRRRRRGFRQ
Kind of experiment: Radioligand binding experiment for hα2C receptor ([3H]-raulwolscine). Particulars: for IC50: read-out: hα2C pIC50 (converted). How it is done:
as §1, §2, §3, §4

The target of experiment [3] is T3, h5-HT transporter (Homo sapiens, UniProt P31645).
T3 construct: Human platelet membranes (Oceanix Biosciences Corporation, Hanover, Md., USA) were thawed; tissue Oceanix Biosciences Corporation, Hanover, Md., USA; host or cells: human platelet membranes
Kind of experiment: Radioligand binding experiment for 5-HT transporter ([3H]paroxetine, human platelet membranes). The conditions noted are these: human platelet membranes, [3H]paroxetine 0.5 nM; for IC50: read-out: 5HTT pIC50 (converted). How it is done: as §1
Human platelet membranes (Oceanix Biosciences Corporation, Hanover, Md., USA) were thawed, diluted in buffer (Tris-HCl 50 mM, 120 mM NaCl and 5 mM KCl) and quickly (max 3 s) homogenised with an Ultraturrax homogenizer. […] Filters were rinsed extensively with ice-cold buffer and radioactivity on the filters was counted in a Topcount liquid scintillation counter (Packard, Meriden, Conn.). Data were expressed as cpm. Imipramine (at 1 μM final concentration) was used to determine the non-specific binding.
as §4

For experiment [4], the target named is T4, hα2B receptor (Homo sapiens, UniProt P18089).
T4 construct: expressed in transfected cells
T4 sequence (P18089 1-450): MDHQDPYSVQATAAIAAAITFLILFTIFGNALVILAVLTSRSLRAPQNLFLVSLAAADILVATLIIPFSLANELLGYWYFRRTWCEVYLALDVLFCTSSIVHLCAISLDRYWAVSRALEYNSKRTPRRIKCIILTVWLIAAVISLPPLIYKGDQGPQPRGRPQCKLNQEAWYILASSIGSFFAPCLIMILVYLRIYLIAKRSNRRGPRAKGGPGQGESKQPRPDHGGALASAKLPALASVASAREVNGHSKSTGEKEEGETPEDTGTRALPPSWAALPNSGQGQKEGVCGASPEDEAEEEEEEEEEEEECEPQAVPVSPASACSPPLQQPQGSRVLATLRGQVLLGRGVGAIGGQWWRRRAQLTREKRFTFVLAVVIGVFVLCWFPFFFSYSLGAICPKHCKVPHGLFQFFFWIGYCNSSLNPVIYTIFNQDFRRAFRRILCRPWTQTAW
Kind of experiment: Radioligand binding experiment for hα2B receptor ([3H]-raulwolscine). The conditions noted are these: membranes of CHO cells expressing human α2B receptor; [3H]raulwolscine 1 nM; read-out: hα2B pIC50 (converted). How it is done: as §1, §2, §3, §4

Setting [5] is: membranes of CHO cells expressing human α2C receptor, [3H]raulwolscine 1 nM.

Molecules are shown by their SMILES. Where two headings read alike, the source gives them in different places.

T3 sequence (P31645 whole entry): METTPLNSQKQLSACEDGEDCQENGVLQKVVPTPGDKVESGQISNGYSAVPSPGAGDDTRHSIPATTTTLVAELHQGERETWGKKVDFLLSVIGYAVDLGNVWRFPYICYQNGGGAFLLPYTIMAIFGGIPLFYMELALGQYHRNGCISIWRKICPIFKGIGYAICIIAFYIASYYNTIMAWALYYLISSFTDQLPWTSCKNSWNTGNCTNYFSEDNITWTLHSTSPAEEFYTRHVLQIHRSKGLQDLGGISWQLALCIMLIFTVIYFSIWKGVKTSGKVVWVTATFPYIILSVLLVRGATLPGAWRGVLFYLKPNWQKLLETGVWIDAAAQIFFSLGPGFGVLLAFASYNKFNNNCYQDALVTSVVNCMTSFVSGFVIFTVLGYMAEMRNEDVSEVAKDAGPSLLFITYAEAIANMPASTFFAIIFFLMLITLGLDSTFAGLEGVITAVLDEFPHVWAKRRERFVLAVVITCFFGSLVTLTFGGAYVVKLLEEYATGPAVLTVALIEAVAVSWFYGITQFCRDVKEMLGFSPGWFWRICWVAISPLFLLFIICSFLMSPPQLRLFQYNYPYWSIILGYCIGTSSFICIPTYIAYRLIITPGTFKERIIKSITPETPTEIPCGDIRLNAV

Consider `COc1cc2c(cc1OC)C1=NOC(CN3CCN(CCC(O)c4ccccc4)CC3)C1CO2` (centres unmarked) [Compound 310], for which the IC50 in experiment [1] is 214 nM; in experiment [2] (setting [5]), 64.6 nM; in experiment [3], 871 nM.
In the same order, the values of `COc1cc2c(cc1OC)C1=NOC(CN3CCN(C/C=C(\C)c4ccccc4F)CC3)C1CO2` (single isomer, unassigned) [Compound 359] are 7.94 nM, 3.47 nM and 44.7 nM.
As for `COc1cc2c(cc1OC(C)=O)OCC1C2=NOC1CN1CCN(C/C(C)=C/c2cccc(F)c2)CC1` (single isomer, unassigned) [Compound 334], the IC50 in experiment [1] was 2.69 nM; in experiment [2] (setting [5]), 2.29 nM.
Consider `COc1cc2c(cc1OCCOC(C)=O)C1=NOC(CN3CCN(CC(C)=Cc4ccccc4)CC3)C1CO2` (centres unmarked) [Compound 332], for which the IC50 in experiment [1] is 4.47 nM; in experiment [2] (setting [5]), 0.603 nM; in experiment [3], 58.9 nM.
Consider `COc1ccc2c(c1)C1=NOC(CN3CCN(CC(C)=Cc4ccccc4)CC3)C1CO2` (centres unmarked) [Compound 348], for which the IC50 in experiment [1] is 1.2 nM; in experiment [2] (setting [5]) it was 1.32 nM; in experiment [3] it was 17.8 nM.
In the same order, the values of `COc1cc2c(cc1OC(C)=O)OCC1C2=NOC1CN1CCN(C/C=C(\C)c2ccccc2)CC1` (single isomer, unassigned) [Compound 358] are 1.48 nM, 3.24 nM and 37.2 nM.
As to `COc1cc2c(cc1SC)OCC1C2=NOC1CN1CCN(CC(C)=Cc2ccccc2)CC1.O=C(O)C(F)(F)F` (racemic) [Compound 350], the “hα2A pIC50” value in experiment [1] is 8.39. Moreover, the “hα2C pIC50” value in experiment [2] (setting [5]) came out at 8.68. Moreover, the “5HTT pIC50” value in experiment [3] is recorded as 7.69.
The corresponding values for `COc1cc2c(cc1OS(C)(=O)=O)OCC1C2=NOC1CN1CCN(CC(C)=Cc2ccccc2)CC1` (single isomer, unassigned) [Compound 346] are 8.65, 8.91 and 8.37.
With `COc1cc2c(cc1OC)C1=NOC(CN3CCN(CCC(=O)c4ccccc4)CC3)C1CO2` (centres unmarked) [Compound 309], the IC50 in experiment [1] is 50.1 nM; in experiment [2] (setting [5]), 58.9 nM; in experiment [3], 389 nM.
As to `COc1cc2c(cc1OC)C1=NOC(CN3CCN(Cc4cccc(Br)c4)CC3)C1CO2` (centres unmarked) [Compound 90], the IC50 in experiment [1] was 195 nM; in experiment [3], 302 nM.
Turning to `COc1cc2c(cc1OC)C1=NOC(CN3CCN(C/C=C(\C)c4ccsc4)CC3)C1CO2` (single isomer, unassigned) [Compound 323], the IC50 in experiment [1] was 6.17 nM; in experiment [2] (setting [5]) it was 9.55 nM; in experiment [3], 15.1 nM.
As for `COc1cc2c(cc1OCC1CC1)OCC1C2=NOC1CN1CCN(C/C(C)=C/c2ccc(F)cc2)CC1` (single isomer, unassigned) [Compound 337], in experiment [1], the IC50 is 20.9 nM.
Take `C=CCOc1cc2c(cc1OC)C1=NOC(CN3CCN(CC(C)=Cc4ccccc4)CC3)C1CO2` (single isomer, unassigned) [Compound 344]: the “hα2A pIC50” value in experiment [1] turned out to be 8.45. Further, in experiment [2] (setting [5]), the “hα2C pIC50” value was determined as 8.68. In addition, the “5HTT pIC50” value in experiment [3] was found to be 8.00.
Turning to `COc1cc2c(cc1OC)C1=NOC(CN3CCN(Cc4cccn4C)CC3)C1CO2` (centres unmarked) [Compound 291], the values for the IC50 in experiment [1], in experiment [2] (setting [5]) and in experiment [3] were 851 nM, 1000 nM and 1000 nM, respectively.
Turning to `COc1cc2c(cc1OC(C)=O)OCC1C2=NOC1CN1CCN(Cc2ccc3ccccc3c2)CC1` (centres unmarked) [Compound 355], the IC50 in experiment [1] was 5.13 nM; in experiment [2] (setting [5]), 7.08 nM; in experiment [3], 13.5 nM.
The corresponding values for `COCCOCOc1cc2c(cc1OC)C1=NOC(CN3CCN(C/C(C)=C/c4ccccc4)CC3)C1CO2` (single isomer, unassigned) [Compound 342] are 8.51 nM, 0.162 nM and 17.4 nM.
The corresponding values for `COC(=O)Oc1cc2c(cc1OC)C1=NOC(CN3CCN(C/C(C)=C/c4ccccc4)CC3)C1CO2` (single isomer, unassigned) [Compound 343] are 2.34 nM, 1.23 nM and 37.2 nM.
The corresponding values for `COc1cc2c(cc1OCCN(C)C)OCC1C2=NOC1CN1CCN(C/C(C)=C/c2ccccc2)CC1` (single isomer, unassigned) [Compound 341] are 3.63 nM, 1.23 nM and 2.19 nM.
For the molecule `COc1cc2c(cc1OC)C1=NOC(CN3CCN(C/C=C(\C)c4ccc(F)cc4)CC3)C1CO2` (single isomer, unassigned) [Compound 361], the IC50 in experiment [1] is 12.6 nM; in experiment [2] (setting [5]), 3.09 nM; in experiment [3], 4.17 nM.
As to `CC(=Cc1ccccc1)CN1CCN(CC2ON=C3c4ccc(OC(=O)C5CC5)cc4OCC32)CC1` (centres unmarked) [Compound 250], the values for the IC50 in experiment [4], in experiment [2] and in experiment [3] were 6.76 nM, 3.31 nM and 81.3 nM, respectively.
For the molecule `COc1cc2c(cc1OC)C1=NOC(CN3CCN(C/C=C(\C)c4cccc(Cl)c4)CC3)C1CO2` (single isomer, unassigned) [Compound 366], the IC50 in experiment [1] is 12.9 nM; in experiment [2] (setting [5]) it was 3.31 nM; in experiment [3], 11.5 nM.
